Literature values, collected in patent publication US8366600B2, “Polyamine enhanced formulations for triptan compound iontophoresis” (NuPathe Inc., priority 2008, dated 2013).

Columns and labels:
[1] = for Cmax: expected maximum concentration in the patient's plasma; for AUC: total plasma concentration
[2] = transdermal, iontophoresis vs passive

Compound	Cmax [1]	AUC [1]	rate of iontophoretic transport relative to passive transport [2]
CN(C)CCc1c[nH]c2ccc(CS(=O)(=O)N3CCCC3)cc12 [Almotriptan]	52 ng/mL	310 ng·h/mL	
CN1CCC[C@@H]1Cc1c[nH]c2ccc(CCS(=O)(=O)c3ccccc3)cc12 [Eletriptan]	200 ng/mL	1,300 ng · hr/mL	
CN[C@@H]1CCc2[nH]c3ccc(C(N)=O)cc3c2C1 [Frovatriptan]	5 ng/mL	45 ng·h/mL	
CNS(=O)(=O)CCc1ccc2[nH]cc(C3CCN(C)CC3)c2c1 [Naratriptan]	8 ng/mL	75 ng·h/mL	
CN(C)CCc1c[nH]c2ccc(Cn3cncn3)cc12 [Rizatriptan]	22 ng/mL	78 ng·h/mL	
CNS(=O)(=O)Cc1ccc2[nH]cc(CCN(C)C)c2c1 [Sumatriptan]			385 fold
CN(C)CCc1c[nH]c2ccc(C[C@H]3COC(=O)N3)cc12 [Zolmitriptan]	4 ng/mL	20 ng·h/mL	
